Reference: patent publication US9115147B2, “Tricyclic derivatives and their pharmaceutical use and compositions” (Cephalon, Inc., priority 2009, dated 2015)

molecular target: T1, human 5-HT6 receptor (Homo sapiens, UniProt P50406); test: Human 5-HT6 Receptor Binding Assay ([3H]LSD, scintillation beads); settings: Human 5-HT6 Ki (nM), actual data; membranes of CHO-K1 cells with recombinant human 5-HT6 receptor, 4 nM [3H]LSD
T1 construct: host or cells: CHO-K1 cells, stably transfected; membranes prepared in house
Experimental: Human 5-HT6 Receptor Binding Assay
Membranes were prepared from CHO-K1 cells stably transfected with the human 5-HT6 receptor (Euroscreen; ES-316-C). The cells were grown in Gibco Advanced DMEM-F12 (Cat#12634010) containing 2% dialyzed FBS (Hyclone Cat#SH30079.03). The cells were harvested in phosphate buffered saline (PBS) containing 0.1 mM EDTA and pelleted by centrifugation (1000×g), the supernatant was discarded and the pellets were stored at −80° C. prior to membrane preparation. Membranes were prepared as previously described (J Bio Chem. 1992, 267 (14) 9844-51). Briefly, frozen cell pellet was resuspended in a lysis buffer containing 5 mM Tris-HCl (pH 7.5), 5 mM EDTA and 1 complete EDTA-free protease inhibitor tablet (Roche Applied Science, Indianapolis, Ind.) per 50 mL buffer, and homogenized with a tissue homogenizer. The cell lysate was then centrifuged at 40,000×g for 30 min at 4° C. to collect the membranes. The membrane pellets were washed in membrane buffer (50 mM Tris-HCl (pH 7.5), 0.6 mM EDTA, 5 mM MgCl2, 1 complete EDTA-free protease inhibitor tablet per 50 mL buffer) using a tissue homogenizer. The membranes were centrifuged at 40,000×g for 30 min at 4° C. and the pellets were resuspended in membrane buffer containing 250 mM sucrose, and protein concentration was determined using the Coomassie Plus kit (Pierce Biotechnology, Rockford, Ill.).
Membranes prepared from cells expressing recombinant human 5-HT6 receptor (h5-HT6) were resuspended in assay buffer containing 50 mM Tris HCl, (pH7.4), 4 mM CaCl2, 10 μg/mL saponin, and 0.1% (w/v) ascorbic acid. Membranes were preincubated using 1.75 μg membrane protein and 0.25 mg FlashBlue scintillation beads (PerkinElmer catalogue #FB001) per well at 4° C. for 30 min. […] Test compounds or assay controls for total and non-specific binding were diluted in DMSO as 100× solutions and serially diluted by half log concentrations on a Perkin Elmer JANUS Automated Workstation. Serotonin (10 μM final concentration) was used to determine non-specific binding in the assay. Plates were read using the Microbeta Trilux 1450 LSC and luminescence counter. Data were analyzed by nonlinear […] using the dose-response equation (variable slope) to calculate IC50 in XLfit4 (ID Business Solutions Inc.): y=(Bottom+((Top−Bottom)/(1+((IC50/x)^Hill slope))))
Ki value was then calculated according to the Cheng-Prusoff method using the equation below (Cheng and Prusoff, 1973): Ki, app=IC50/(1+([radioligand]/Kd))

T1 sequence (P50406 whole entry): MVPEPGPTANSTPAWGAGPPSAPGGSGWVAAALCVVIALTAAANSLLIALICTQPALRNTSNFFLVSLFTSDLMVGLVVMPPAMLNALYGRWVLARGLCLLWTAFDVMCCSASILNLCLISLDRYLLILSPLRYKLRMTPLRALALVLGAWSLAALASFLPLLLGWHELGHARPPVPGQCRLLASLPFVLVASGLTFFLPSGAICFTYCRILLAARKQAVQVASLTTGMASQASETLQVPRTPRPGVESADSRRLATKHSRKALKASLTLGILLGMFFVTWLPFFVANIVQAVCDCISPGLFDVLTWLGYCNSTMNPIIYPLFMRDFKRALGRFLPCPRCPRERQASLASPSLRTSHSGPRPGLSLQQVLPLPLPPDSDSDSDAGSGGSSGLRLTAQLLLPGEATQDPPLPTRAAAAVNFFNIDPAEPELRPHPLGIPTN

Question: Which Ki does the source give for `Cc1cccc([S+]([O-])c2ccc3c(c2)OCC2NCCC32)n1` (single isomer, unassigned) [Example 22, 7-[(6-methylpyridin-2-yl)sulfinyl]-1,2,3,3a,4,9b-hexahydrochromeno[3,4-b]pyrrole] here?
Answer: 51.5 nM

same assay, conditions: Human 5-HT6 Ki app (nM), membranes of CHO-K1 cells with recombinant human 5-HT6 receptor, 4 nM [3H]LSD, Cheng-Prusoff

Question: With `Cc1cccc([S+]([O-])c2ccc3c(c2)OCC2NCCC32)n1` (single isomer, unassigned) [Example 22, 7-[(6-methylpyridin-2-yl)sulfinyl]-1,2,3,3a,4,9b-hexahydrochromeno[3,4-b]pyrrole] as the compound, how does the Ki read?
Answer: < 500 nM

Question: Which Ki does the source give for `Cc1cccc(S(=O)(=O)c2ccc3c(c2)OCC2NCCC32)n1` (single isomer, unassigned) [Example 23, 7-[(6-methylpyridin-2-yl)sulfonyl]-1,2,3,3a,4,9b-hexahydrochromeno[3,4-b]pyrrole] here?
Answer: < 500 nM

Question: Which Ki does the source give for `O=S(=O)(c1cncc(Br)c1)c1ccc2c(c1)OCC1NCCC21` (single isomer, unassigned) [Example 28, 7-[(5-bromopyridin-3-yl)sulfonyl]-1,2,3,3a,4,9b-hexahydrochromeno[3,4-b]pyrrole] here?
Answer: < 500 nM

Question: With `O=S(=O)(c1cncc(F)c1)c1ccc2c(c1)OCC1NCCC21` (single isomer, unassigned) [Example 29, 7-[(5-fluoropyridin-3-yl)sulfonyl]-1,2,3,3a,4,9b-hexahydrochromeno[3,4-b]pyrrole] as the compound, how does the Ki read?
Answer: < 500 nM

Question: `O=S(=O)(c1cncc(Cl)c1)c1ccc2c(c1)OCC1NCCC21` (single isomer, unassigned) [Example 30, 7-[(5-chloropyridin-3-yl)sulfonyl]-1,2,3,3a,4,9b-hexahydrochromeno[3,4-b]pyrrole] was tested. Which Ki did it give?
Answer: < 500 nM

Question: With `O=S(=O)(c1cncc(F)c1)c1ccc2c(c1)OCC1NCCC21` (single isomer, unassigned) [Example 32, 7-[(5-fluoropyridin-3-yl)sulfonyl]-1,2,3,3a,4,9b-hexahydrochromeno[3,4-b]pyrrole] as the compound, how does the Ki read?
Answer: > 1000 nM

Question: With `COc1cncc(S(=O)(=O)c2ccc3c(c2)OCC2NCCC32)c1` (single isomer, unassigned) [Example 33, 7-[(5-methoxypyridin-3-yl)sulfonyl]-1,2,3,3a,4,9b-hexahydrochromeno[3,4-b]pyrrole] as the compound, how does the Ki read?
Answer: < 500 nM

Question: `COc1cncc(S(=O)(=O)c2ccc3c(c2)OCC2NCCC32)c1` (single isomer, unassigned) [Example 35, 7-[(5-methoxypyridin-3-yl)sulfonyl]-1,2,3,3a,4,9b-hexahydrochromeno[3,4-b]pyrrole] was tested. Which Ki did it give?
Answer: > 1000 nM

same assay, conditions: membranes of CHO-K1 cells with recombinant human 5-HT6 receptor, 4 nM [3H]LSD, Cheng-Prusoff; read-out: Human 5-HT6 Ki app

Question: With `CC(C)Oc1cccc(S(=O)(=O)c2ccc3c(c2)OCC2NCCC32)c1` (single isomer, unassigned) [Example 9, 7-{[3-(propan-2-yloxy)phenyl]sulfonyl}-1,2,3,3a,4,9b-hexahydrochromeno[3,4-b]pyrrole] as the compound, how does the Ki read?
Answer: < 500 nM

Question: Which Ki does the source give for `O=S(=O)(c1cccc(F)c1)c1ccc2c(c1)OCC1NCCC21` (single isomer, unassigned) [Example 10, 7-[(3-fluorophenyl)sulfonyl]-1,2,3,3a,4,9b-hexahydrochromeno[3,4-b]pyrrole] here?
Answer: < 500 nM

Question: How did the Ki turn out when `O=S(=O)(c1cccc(Cl)c1)c1ccc2c(c1)OCC1NCCC21` (single isomer, unassigned) [Example 11, 7-[(3-chlorophenyl)sulfonyl]-1,2,3,3a,4,9b-hexahydrochromeno[3,4-b]pyrrole] was run?
Answer: < 500 nM

Question: For `O=S(=O)(c1cc(Cl)cc(Cl)c1)c1ccc2c(c1)OCC1NCCC21` (single isomer, unassigned) [Example 12, 7-[(3,5-dichlorophenyl)sulfonyl]-1,2,3,3a,4,9b-hexahydrochromeno[3,4-b]pyrrole], which Ki is on record?
Answer: < 500 nM

Question: Which Ki does the source give for `O=S(=O)(c1ccc(F)cc1)c1ccc2c(c1)OCC1NCCC21` (single isomer, unassigned) [Example 13, 7-[(4-fluorophenyl)sulfonyl]-1,2,3,3a,4,9b-hexahydrochromeno[3,4-b]pyrrole] here?
Answer: < 500 nM

Question: For `O=S(=O)(c1cc(F)cc(F)c1)c1ccc2c(c1)OCC1NCCC21` (single isomer, unassigned) [Example 14, 7-[(3,5-difluorophenyl)sulfonyl]-1,2,3,3a,4,9b-hexahydrochromeno[3,4-b]pyrrole], which Ki is on record?
Answer: < 500 nM

Question: How did the Ki turn out when `O=S(=O)(c1cc(F)cc(Cl)c1)c1ccc2c(c1)OCC1NCCC21` (single isomer, unassigned) [Example 15, 7-[(3-chloro-5-fluorophenyl)sulfonyl]-1,2,3,3a,4,9b-hexahydrochromeno[3,4-b]pyrrole] was run?
Answer: < 500 nM

Question: How did the Ki turn out when `O=S(=O)(c1cccc(OC(F)(F)F)c1)c1ccc2c(c1)OCC1NCCC21` (single isomer, unassigned) [Example 16, 7-{[3-(trifluoromethoxy)phenyl]sulfonyl}-1,2,3,3a,4,9b-hexahydrochromeno[3,4-b]pyrrole] was run?
Answer: < 500 nM

Question: For `O=S(=O)(c1cccc(C(F)(F)F)c1)c1ccc2c(c1)OCC1NCCC21` (single isomer, unassigned) [Example 17, 7-{[3-(trifluoromethyl)phenyl]sulfonyl}-1,2,3,3a,4,9b-hexahydrochromeno[3,4-b]pyrrole], which Ki is on record?
Answer: < 500 nM

Question: `CC(C)Oc1cccc(S(=O)(=O)c2ccc3c(c2)OCC2NCCC32)c1` (single isomer, unassigned) [Example 18, 7-{[3-(propan-2-yloxy)phenyl]sulfonyl}-1,2,3,3a,4,9b-hexahydrochromeno[3,4-b]pyrrole] was tested. Which Ki did it give?
Answer: < 500 nM

Question: For `O=S(=O)(c1ccc2c(c1)OCC1NCCC21)c1cccc2ccccc12` (single isomer, unassigned) [Example 19, 7-(naphthalen-1-ylsulfonyl)-1,2,3,3a,4,9b-hexahydrochromeno[3,4-b]pyrrole], which Ki is on record?
Answer: < 500 nM

Question: With `O=S(=O)(c1ccc2c(c1)OCC1NCCC21)c1cccc2ccccc12` (single isomer, unassigned) [Example 20, 7-(naphthalen-1-ylsulfonyl)-1,2,3,3a,4,9b-hexahydrochromeno[3,4-b]pyrrole] as the compound, how does the Ki read?
Answer: < 500 nM

Question: How did the Ki turn out when `Cc1cccc(Sc2ccc3c(c2)OCC2NCCC32)n1` (single isomer, unassigned) [Example 21, 7-[(6-methylpyridin-2-yl)sulfanyl]-1,2,3,3a,4,9b-hexahydrochromeno[3,4-b]pyrrole] was run?
Answer: > 1000 nM

Question: With `CC(C)Oc1cc(F)cc(S(=O)(=O)c2ccc3c(c2)OCC2NCCC32)c1` (single isomer, unassigned) [Example 27, 7-{[3-fluoro-5-(propan-2-yloxy)phenyl]sulfonyl}-1,2,3,3a,4,9b-hexahydrochromeno[3,4-b]pyrrole] as the compound, how does the Ki read?
Answer: < 500 nM

Question: For `COc1cc(F)cc(S(=O)(=O)c2ccc3c(c2)OCC2NCCC32)c1` (single isomer, unassigned) [Example 36, 7-[(3-fluoro-5-methoxyphenyl)sulfonyl]-1,2,3,3a,4,9b-hexahydrochromeno[3,4-b]pyrrole], which Ki is on record?
Answer: < 500 nM

Question: `O=S(=O)(c1ccc2c(c1)OCC1NCCC21)c1cccc2c1CCO2` (single isomer, unassigned) [Example 37, 7-(2,3-dihydro-1-benzofuran-4-ylsulfonyl)-1,2,3,3a,4,9b-hexahydrochromeno[3,4-b]pyrrole] was tested. Which Ki did it give?
Answer: < 500 nM

same assay, conditions: read-out: Human 5-HT6 Ki app; membranes of CHO-K1 cells with recombinant human 5-HT6 receptor, 4 nM [3H]LSD, Cheng-Prusoff

Question: For `Cc1cccc(S(=O)(=O)c2ccc3c(c2)OCC2NCCC32)n1` (single isomer, unassigned) [Example 24, 7-[(6-methylpyridin-2-yl)sulfonyl]-1,2,3,3a,4,9b-hexahydrochromeno[3,4-b]pyrrole], which Ki is on record?
Answer: < 500 nM

Question: How did the Ki turn out when `O=S(=O)(c1cncc(Br)c1)c1ccc2c(c1)OCC1NCCC21` (single isomer, unassigned) [Example 31, 7-[(5-bromopyridin-3-yl)sulfonyl]-1,2,3,3a,4,9b-hexahydrochromeno[3,4-b]pyrrole] was run?
Answer: < 500 nM

Question: For `O=S(=O)(c1cncc(Cl)c1)c1ccc2c(c1)OCC1NCCC21` (single isomer, unassigned) [Example 34, 7-[(5-chloropyridin-3-yl)sulfonyl]-1,2,3,3a,4,9b-hexahydrochromeno[3,4-b]pyrrole], which Ki is on record?
Answer: < 500 nM
